Ki data for four compounds are collected here from patent US12178842B2, “PCSK9 antagonist compounds” (MERCK SHARP & DOHME LLC, priority 2019, dated 2024).

Common to all, as to format: binding
In test [1] the target is T1, PCSK9 (Homo sapiens, UniProt Q8NBP7).
T1 construct: biotin (biotinylated); purchased
In words: PCSK9 Alexa FRET Ultra TR-FRET assay. The following applies: Ki Ultra, calculated from IC50 and KD of AF cyclic peptide; 0.5 nM PCSK9, 960 nM AF cyclic peptide; read-out: Alexa FRET Ultra TR-FRET. The method, boiled down: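 Competition of compounds with AlexaFluor-tagged cyclic peptide (1920 nM solution, not final) for europium-labeled PCSK9, read by TR-FRET after at least 2 h at room temperature. IC50 from sigmoidal fit, converted to Ki (nM) using peptide KD; falling europium counts flag false positives.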

Test [2] concerns the target T1, PCSK9. In words: PCSK9 Alexa FRET Plus TR-FRET assay. To be noted: Ki calculated from IC50 and KD of AF cyclic peptide Reagent B; 0.5 nM PCSK9, 960 nM AF cyclic peptide; read-out: Alexa FRET Plus TR-FRET. The method, boiled down: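 TR-FRET competition between europium-labeled PCSK9 and AlexaFluor-tagged cyclic peptide (prepared at 1920 nM stock), incubated at least 2 h at room temperature. IC50 from sigmoidal nonlinear fit converted to Ki using the peptide KD; falling europium counts flag false-positive inhibition; values reported in nM.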

For test [3], the target named is T1, PCSK9. In words: PCSK9 Alexa FRET Standard TR-FRET assay. To be noted: Ki calculated from IC50 and KD of AF cyclic peptide Reagent A; 0.5 nM PCSK9, 20 nM AF cyclic peptide; read-out: Alexa FRET Stdt TR-FRET. The method, boiled down: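 TR-FRET displacement with final 0.5 nM biotinylated PCSK9, 1.25 nM streptavidin-Eu and 20 nM AlexaFluor cyclic peptide in 50 mM HEPES pH 7.4, 0.15 M NaCl, 5 mM CaCl2, 0.01% BSA, 0.01% P20; ≥2 h at room temperature. IC50 by sigmoidal fit, converted to Ki (nM) using tracer KD.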

Some results are limits rather than exact numbers.

T1 sequence (Q8NBP7 153-692): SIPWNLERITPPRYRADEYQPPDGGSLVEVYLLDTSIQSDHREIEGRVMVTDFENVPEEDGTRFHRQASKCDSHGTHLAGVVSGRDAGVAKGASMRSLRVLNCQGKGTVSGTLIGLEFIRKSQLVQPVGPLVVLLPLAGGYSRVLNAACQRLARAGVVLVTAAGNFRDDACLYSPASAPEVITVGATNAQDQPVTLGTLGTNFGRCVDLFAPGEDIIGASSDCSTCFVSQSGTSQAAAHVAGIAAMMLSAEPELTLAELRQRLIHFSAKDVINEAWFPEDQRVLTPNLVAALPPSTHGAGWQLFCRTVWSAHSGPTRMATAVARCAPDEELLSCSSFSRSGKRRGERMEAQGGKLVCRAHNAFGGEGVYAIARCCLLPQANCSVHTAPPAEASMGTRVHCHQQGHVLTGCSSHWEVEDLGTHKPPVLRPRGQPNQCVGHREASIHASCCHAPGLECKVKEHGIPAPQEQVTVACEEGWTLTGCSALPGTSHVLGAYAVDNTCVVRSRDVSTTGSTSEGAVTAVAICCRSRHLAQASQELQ

Turning to `COc1ccc(C[C@@H]2NC(=O)[C@H]([C@@H](C)O)NC(=O)[C@@H]3[C@@H]4CCN3C(=O)[C@@H]3Cc5cn(c6ccc(F)cc56)CCCCCCN(Cc5ccc(cc5)CCNC(=O)[C@]5(C)CCCN5C2=O)C(=O)CCC(=O)N[C@@H](CNC(=O)COCCOCCNC(=O)COCCOCCNC(=O)CC[C@H](NC(=O)CCCCCCCCCCCCCCCCC(=O)O)C(=O)O)C(=O)N[C@H](CNC(=O)CCOCCOCC[N+](C)(C)C)C(=O)N[C@@H](Cc2cccc(c2)CNC(=O)CO4)C(=O)N3)cc1` [Ex-63], the Ki was 0.045 nM at PCSK9 [1], below 0.006 nM on PCSK9 [2] and below 1.26 nM at PCSK9 [3].

In the case of `COc1ccc(C[C@@H]2NC(=O)[C@H]([C@@H](C)O)NC(=O)[C@@H]3[C@@H]4CCN3C(=O)[C@@H]3Cc5cn(c6ccc(F)cc56)CCCCCCN(Cc5ccc(cc5)CCNC(=O)[C@]5(C)CCCN5C2=O)C(=O)CCC(=O)N[C@@H](CNC(=O)CCOCCOCC[N+](C)(C)CCNC(=O)COCCOCCNC(=O)COCCOCCNC(=O)CC[C@@H](NC(=O)CC[C@@H](NC(=O)CCCCCCCCCCCCCCCCC(=O)O)C(=O)O)C(=O)O)C(=O)N[C@H](C)C(=O)N[C@@H](Cc2cccc(c2)CNC(=O)CO4)C(=O)N3)cc1` [Ex-59], the Ki at PCSK9 [1] is 0.101 nM; at PCSK9 [2] it was 0.02 nM; at PCSK9 [3], below 1.26 nM.

Regarding `COc1ccc(C[C@@H]2NC(=O)[C@H]([C@@H](C)O)NC(=O)[C@@H]3[C@@H]4CCN3C(=O)[C@@H]3Cc5cn(c6ccc(F)cc56)CCCCCCN(Cc5ccc(cc5)CCNC(=O)[C@]5(C)CCCN5C2=O)C(=O)CCC(=O)N[C@@H](C)C(=O)N[C@H](CNC(=O)CCOCCOCC[N+](C)(C)CCNC(=O)COCCOCCNC(=O)COCCOCCNC(=O)CC[C@H](NC(=O)CCCCCCCCCCCCCCC(=O)N[C@@H](CC(=O)O)C(=O)O)C(=O)O)C(=O)N[C@@H](Cc2cccc(c2)CNC(=O)CO4)C(=O)N3)cc1` [Ex-56], the Ki at PCSK9 [1] was 0.004 nM; at PCSK9 [2], below 0.006 nM; on PCSK9 [3], below 1.26 nM.

As to `COc1ccc(C[C@@H]2NC(=O)[C@H]([C@@H](C)O)NC(=O)[C@@H]3[C@@H]4CCN3C(=O)[C@@H]3Cc5cn(c6ccc(F)cc56)CCCCCCN(Cc5ccc(cc5)CCNC(=O)[C@]5(C)CCCN5C2=O)C(=O)CCC(=O)N[C@@H](C)C(=O)N[C@H](CNC(=O)COCCOCCOCCOCCNC(=O)CCCCC[N+](C)(C)CCNC(=O)COCCOCCNC(=O)COCCOCCNC(=O)CC[C@@H](NC(=O)CCCCCCCCCCCCCCCCC(=O)O)C(=O)O)C(=O)N[C@@H](Cc2cccc(c2)CNC(=O)CO4)C(=O)N3)cc1` [Ex-28], the Ki at PCSK9 [1] is 0.01 nM; at PCSK9 [2], 0.013 nM; on PCSK9 [3] it was below 1.26 nM.
